Results published in patent publication US20230265116A1, “DEGRADATION OF (EGFR) BY CONJUGATION OF EGFR INHIBITORS WITH E3 LIGASE LIGAND AND METHODS OF USE” (BEIGENE, LTD., priority 2020, published 2023).

Key:
Assay type in all cases: cell-based
[1] = system: EGFR Del19/C797S (H1975-clone #23); assay: EGFR degradation HTRF assay, H1975-clone #23 DC cells; settings: 16h treatment; for H1975 #23 DC Dmax (%): maximum percentage of degradation; for DC50: H1975 #23 DC, read-out: H1975 #23 DC DC50
Experimental: H1975-clone #28(Del19/T790M/C797S) and H1975-clone #23(Del19/C797S). EGFR-Del19/T790M/C797S and EGFR-Del19/C797S were stably expressed in H1975 cell lines by lentivirus-mediated over-expression, respectively. The EGFR over-expressed cells then underwent gene knockout, in which the EGFR targeting sgRNA was designed to only target the endogenous EGFR copies and preserve the exogenous EGFR copies. Followed by the gene knockout, the edited H1975 cells were seeded in 96 well plates at the concentration of 1 cell/well, cultured for about 2 weeks to allow single clones formation. The formed clones were screened by DNA sequencing and whole exon sequencing analysis for the desired edition. H1975-clone #28 and H1975-clone #23 were finally confirmed as homozygous Del19/T790M/C797S EGFR and Del19/C797S EGFR clones, respectively.
BaF3 WT(wild type), BaF3-LTC(L858R/T790M/C797S) and BaF3-DTC(Del19/T790M/C797S) cells are treated with compounds diluted in 0.2% DMSO cell culture medium and incubate for 16h, 37° C., 5% CO2, H1975-#36, H1975-#28, H1975-#23 and HCC827 cells are treated with compounds diluted in 0.2% DMSO cell culture medium on day 2, incubate for 16h, 37° C., 5% CO2.the final concentriation of compounds in all assay is start with 10 uM, 5-fold dilution, total 8 doses were included.
After 16h treatment, add HTRF lysis buffer to each well; seal the plate and incubate 1 hour at room temperature on a plate shaker; Once the cells are lysed, 16 μL of cell lysate are transferred to a PE 384-well HTRF detection plate; 4 μL of pre-mixed HTRF antibodies are added to each well; Cover the plate with a plate sealer, spin 1000 rpm for 1 min, Incubate overnight at room temperature; Read on BMG PheraStar with HTRF protocol (337 nm-665 nm-620 nm).
The inhibition (degradation) percentage of the compound was calculated by the following equation: Inhibition percentage of Compound=100-100×(Signal-low control)/(High control-low control), wherein signal=each test compound group
High control=Cell group with added DMSO and without compound, indicating microplate readings without EGFR degradation;
Dmax is the maximum percentage of inhibition (degradation).
The IC50 (DC50) value of a compound can be obtained by fitting the following equation
Y=Bottom+(TOP−Bottom)/(1+((IC50/X)^hillslope))
Wherein, X and Y are known values, and IC50, Hillslope, Top and Bottom are the parameters obtained by fitting with software. Y is the inhibition percentage (calculated from the equation), X is the concentration of the compound; IC50 is the concentration of the compound when the 50% inhibition is reached. The smaller the IC50 value is, the stronger the inhibitory ability of the compound is. Vice versa, the higher the IC50 value is, the weaker the inhibitory ability of the compound is; Hillslope represents the slope of the fitted curve, generally around 1*; Bottom represents the minimum value of the curve obtained by data fitting, which is generally 0%±20%; Top represents the maximum value of the curve obtained by data fitting, which is generally 100%±20%. The experimental data were fitted by calculating and analyzing with Dotmatics data analysis software.

[2] = target: T1, EGFR L858R/T790M/C797S (BaF3-LTC cells) (Homo sapiens, UniProt P00533, C797S/L858R/T790M); assay: EGFR degradation HTRF assay, BaF3-LTC cells; settings: BaF3-LTC cells; for DC50: EGFR degradation, IC50 (DC50) from curve fit, read-out: DC50(nM) BaF3-LTC; for Dmax: maximum percentage of inhibition (degradation), read-out: Dmax (%) BaF3-LTC
T1 construct: expressed in transfected cells; host or cells: BaF3
In short: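 EGFR remaining after a 16 h, 37 °C exposure (8 doses, 5-fold steps from 10 uM final, 0.2% DMSO) was quantified by HTRF antibodies in cell lysate. Percent inhibition relative to DMSO control was fitted by four-parameter logistic to give DC50; Dmax denotes maximal degradation.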

[3] = system: EGFR Del19/T790M/C797S (H1975-clone #28); assay: EGFR degradation HTRF assay, H1975-clone #28 DTC cells; settings: H1975 # 28 DTC cells; for DC50: EGFR degradation, IC50 (DC50) from curve fit, read-out: DC50(nM) H1975 # 28 DTC; for Dmax (%) H1975 # 28 DTC: maximum percentage of inhibition (degradation)
In short: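 Cells were dosed on day 2 with an 8-point, 5-fold dilution series starting at 10 uM final and incubated 16h at 37° C. After lysis for 1 hour, HTRF antibodies were added overnight at room temperature and the plate was read at 665/620 nm. Degradation was normalised to DMSO wells and fitted for DC50 and Dmax.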

[4] = target: T2, EGFR L858R/C797S (BaF3 LC cells) (Homo sapiens, UniProt P00533, C797S/L858R); assay: EGFR degradation HTRF assay, BaF3 LC cells; settings: BaF3 LC, 16h treatment; for Dmax: maximum percentage of degradation, read-out: BaF3 LC Dmax (%); for DC50: read-out: BaF3 LC DC50
T2 construct: expressed in transfected cells; host or cells: BaF3
T2 sequence (P00533 25-1210 C797S/L858R): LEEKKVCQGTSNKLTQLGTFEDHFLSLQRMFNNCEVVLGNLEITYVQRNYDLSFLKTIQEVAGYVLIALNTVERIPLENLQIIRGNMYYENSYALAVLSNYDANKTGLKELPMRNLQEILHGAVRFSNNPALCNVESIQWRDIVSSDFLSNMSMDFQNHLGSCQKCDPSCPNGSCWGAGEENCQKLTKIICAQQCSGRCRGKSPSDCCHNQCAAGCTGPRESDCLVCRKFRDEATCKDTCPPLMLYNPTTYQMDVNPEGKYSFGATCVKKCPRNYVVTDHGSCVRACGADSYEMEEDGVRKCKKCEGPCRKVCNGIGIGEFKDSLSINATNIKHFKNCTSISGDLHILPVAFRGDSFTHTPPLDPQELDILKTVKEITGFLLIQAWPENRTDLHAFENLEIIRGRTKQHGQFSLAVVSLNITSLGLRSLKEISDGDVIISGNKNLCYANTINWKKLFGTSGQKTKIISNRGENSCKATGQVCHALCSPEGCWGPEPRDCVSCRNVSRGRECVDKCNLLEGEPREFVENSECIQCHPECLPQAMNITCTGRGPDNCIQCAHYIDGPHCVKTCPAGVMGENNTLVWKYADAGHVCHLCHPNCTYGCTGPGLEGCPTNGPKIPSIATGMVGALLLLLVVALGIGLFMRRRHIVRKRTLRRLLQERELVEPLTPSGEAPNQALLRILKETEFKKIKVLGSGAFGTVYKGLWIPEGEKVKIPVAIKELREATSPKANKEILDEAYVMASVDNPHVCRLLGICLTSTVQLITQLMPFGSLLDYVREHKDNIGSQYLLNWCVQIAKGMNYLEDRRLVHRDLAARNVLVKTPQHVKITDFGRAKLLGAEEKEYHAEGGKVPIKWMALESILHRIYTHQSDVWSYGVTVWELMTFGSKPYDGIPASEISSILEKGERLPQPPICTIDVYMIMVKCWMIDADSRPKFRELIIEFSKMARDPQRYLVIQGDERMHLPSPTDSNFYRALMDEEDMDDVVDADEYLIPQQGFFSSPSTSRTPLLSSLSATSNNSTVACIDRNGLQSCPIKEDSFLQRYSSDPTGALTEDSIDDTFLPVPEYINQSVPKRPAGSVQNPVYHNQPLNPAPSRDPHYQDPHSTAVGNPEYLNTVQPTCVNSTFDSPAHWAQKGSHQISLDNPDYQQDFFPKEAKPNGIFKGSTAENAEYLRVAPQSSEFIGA

T1 sequence (P00533 25-1210 T790M/C797S/L858R): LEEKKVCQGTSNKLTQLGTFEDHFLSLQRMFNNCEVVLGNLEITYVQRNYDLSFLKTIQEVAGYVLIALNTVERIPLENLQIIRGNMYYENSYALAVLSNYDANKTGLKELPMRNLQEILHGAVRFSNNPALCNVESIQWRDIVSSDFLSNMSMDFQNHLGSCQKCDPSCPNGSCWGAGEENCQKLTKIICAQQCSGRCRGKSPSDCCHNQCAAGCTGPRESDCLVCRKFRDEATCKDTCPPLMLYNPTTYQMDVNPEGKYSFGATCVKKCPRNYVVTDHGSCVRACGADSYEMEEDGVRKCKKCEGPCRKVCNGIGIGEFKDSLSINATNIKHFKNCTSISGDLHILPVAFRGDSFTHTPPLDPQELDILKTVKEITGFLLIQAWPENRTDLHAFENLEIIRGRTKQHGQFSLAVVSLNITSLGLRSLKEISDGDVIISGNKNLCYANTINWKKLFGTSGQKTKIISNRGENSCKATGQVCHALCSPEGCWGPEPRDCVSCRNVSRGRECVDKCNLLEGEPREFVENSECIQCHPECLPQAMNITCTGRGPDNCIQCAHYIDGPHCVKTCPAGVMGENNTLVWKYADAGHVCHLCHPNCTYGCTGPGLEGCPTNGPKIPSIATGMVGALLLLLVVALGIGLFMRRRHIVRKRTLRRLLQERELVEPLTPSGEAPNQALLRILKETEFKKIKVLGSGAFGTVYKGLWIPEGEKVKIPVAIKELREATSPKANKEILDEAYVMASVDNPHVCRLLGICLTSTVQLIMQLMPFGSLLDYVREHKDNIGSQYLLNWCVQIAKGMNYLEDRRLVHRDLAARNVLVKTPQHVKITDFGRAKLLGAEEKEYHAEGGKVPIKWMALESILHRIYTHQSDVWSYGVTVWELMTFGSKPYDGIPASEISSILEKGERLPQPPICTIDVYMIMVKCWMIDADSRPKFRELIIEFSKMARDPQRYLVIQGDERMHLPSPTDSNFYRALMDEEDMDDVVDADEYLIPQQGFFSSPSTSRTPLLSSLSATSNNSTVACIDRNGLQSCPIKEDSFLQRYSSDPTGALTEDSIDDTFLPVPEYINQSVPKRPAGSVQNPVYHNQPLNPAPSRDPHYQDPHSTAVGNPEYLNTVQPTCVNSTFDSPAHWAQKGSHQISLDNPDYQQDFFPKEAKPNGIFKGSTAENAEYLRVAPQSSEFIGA

CCOc1cc(N2CCC(N3CCN(CCc4cc(F)c([C@H]5CCC(=O)NC5=O)c(F)c4)CC3)CC2)c(CC)cc1Nc1ncc(Br)c(Nc2cc(F)c3nc(C)ccc3c2P(C)(C)=O)n1 [Example 534, (R)-3-(4-(2-(4-(1-(4-((5-bromo-4-((5-(dimethylphosphoryl)-8-fluoro-2-methylquinolin-6-yl)amino)pyrimidin-2-yl)amino)-5-ethoxy-2-ethylphenyl)piperidin-4-yl)piperazin-1-yl)ethyl)-2,6-difluorophenyl)piperidine-2,6-dione]
H1975 #23 DC Dmax (%) [1]: 80.71% | DC50 [1]: 2.16 nM | DC50 [2]: 4.2 nM | Dmax [2]: 93.7% | DC50 [3]: 0.749 nM | Dmax (%) H1975 # 28 DTC [3]: 83.48% | Dmax [4]: 90.2% | DC50 [4]: 10.2 nM

CCOc1cc(N2CCC(N3CCN(CCc4cccc5c4n(C4CC4)c(=O)n5C4CCC(=O)NC4=O)CC3)CC2)c(CC)cc1Nc1ncc(Br)c(Nc2ccc3nc(CC)ccc3c2P(C)(C)=O)n1 (stereo not drawn) [Example 468, 3-(4-(2-(4-(1-(4-((5-bromo-4-((5-(dimethylphosphoryl)-2-ethylquinolin-6-yl)amino)pyrimidin-2-yl)amino)-5-ethoxy-2-ethylphenyl)piperidin-4-yl)piperazin-1-yl)ethyl)-3-cyclopropyl-2-oxo-2,3-dihydro-1H-benzo[d]imidazol-1-yl)piperidine-2,6-dione]
H1975 #23 DC Dmax (%) [1]: 79.65% | DC50 [1]: 11.9 nM | DC50 [2]: 12.2 nM | Dmax [2]: 90.2% | DC50 [3]: 0.998 nM | Dmax (%) H1975 # 28 DTC [3]: 74.46% | Dmax [4]: 82.8% | DC50 [4]: 66.1 nM

CCOc1cc(N2CCC(N3CCN(CC4CN(c5cc(F)cc6c5oc(=O)n6C5CCC(=O)NC5=O)C4)CC3)CC2)c(CC)cc1Nc1ncc(Br)c(Nc2ccc3nc(CC)ccc3c2P(C)(C)=O)n1 (stereo not drawn) [Example 479, 3-(7-(3-((4-(1-(4-((5-bromo-4-((5-(dimethylphosphoryl)-2-ethylquinolin-6-yl)amino)pyrimidin-2-yl)amino)-5-ethoxy-2-ethylphenyl)piperidin-4-yl)piperazin-1-yl)methyl)azetidin-1-yl)-5-fluoro-2-oxobenzo[d]oxazol-3(2H)-yl)piperidine-2,6-dione]
H1975 #23 DC Dmax (%) [1]: 76.53% | DC50 [1]: 4.91 nM | DC50 [2]: 7.8 nM | Dmax [2]: 88.8% | DC50 [3]: 2.81 nM | Dmax (%) H1975 # 28 DTC [3]: 95.6% | Dmax [4]: 82.7% | DC50 [4]: 20.3 nM

CCOc1cc(N2CCC(N3CCN(CCc4ccc5c(c4)oc(=O)n5C4CCC(=O)NC4=O)CC3)CC2)c(CC)cc1Nc1ncc(Br)c(Nc2ccc3nc(CC)ccc3c2P(C)(C)=O)n1 (stereo not drawn) [Example 463, 3-(6-(2-(4-(1-(4-((5-bromo-4-((5-(dimethylphosphoryl)-2-ethylquinolin-6-yl)amino)pyrimidin-2-yl)amino)-5-ethoxy-2-ethylphenyl)piperidin-4-yl)piperazin-1-yl)ethyl)-2-oxobenzo[d]oxazol-3(2H)-yl)piperidine-2,6-dione]
H1975 #23 DC Dmax (%) [1]: 56.75% | DC50 [1]: 0.951 nM | DC50 [2]: 3.34 nM | Dmax [2]: 92.6% | DC50 [3]: 0.26 nM | Dmax (%) H1975 # 28 DTC [3]: 82.73% | Dmax [4]: 85.5% | DC50 [4]: 6.88 nM

CCc1cc(Nc2ncc(Br)c(Nc3ccc4nc(C)c(F)cc4c3P(C)(C)=O)n2)c(OC)cc1N1CCC(N2CCN(C(=O)[C@@H]3CCN(c4cc(F)c([C@H]5CCC(=O)NC5=O)c(F)c4)C3)CC2)CC1 [Example 488, (R)-3-(4-((R)-3-(4-(1-(4-((5-bromo-4-((5-(dimethylphosphoryl)-3-fluoro-2-methylquinolin-6-yl)amino)pyrimidin-2-yl)amino)-2-ethyl-5-methoxyphenyl)piperidin-4-yl)piperazine-1-carbonyl)pyrrolidin-1-yl)-2,6-difluorophenyl)piperidine-2,6-dione]
H1975 #23 DC Dmax (%) [1]: 67.73% | DC50 [1]: 2.23 nM | DC50 [2]: 3.52 nM | DC50 [3]: 0.97 nM | Dmax (%) H1975 # 28 DTC [3]: 84.91% | DC50 [4]: 17.9 nM

CCOc1cc(N2CCC(N3CCN(CCc4cccc5c4C4(CC4)C(=O)N5C4CCC(=O)NC4=O)CC3)CC2)c(CC)cc1Nc1ncc(Br)c(Nc2ccc3nc(CC)ccc3c2P(C)(C)=O)n1 (stereo not drawn) [Example 571, 3-(4′-(2-(4-(1-(4-((5-bromo-4-((5-(dimethylphosphoryl)-2-ethylquinolin-6-yl)amino)pyrimidin-2-yl)amino)-5-ethoxy-2-ethylphenyl)piperidin-4-yl)piperazin-1-yl)ethyl)-2′-oxospiro[cyclopropane-1,3′-indolin]-1′-yl)piperidine-2,6-dione]
H1975 #23 DC Dmax (%) [1]: 75.83% | DC50 [1]: 3.05 nM | DC50 [2]: 3.49 nM | DC50 [3]: 0.946 nM | Dmax (%) H1975 # 28 DTC [3]: 77.08% | DC50 [4]: 13.2 nM

CCc1cc(Nc2ncc(Br)c(Nc3cc(F)c4nc(C)ccc4c3P(C)(C)=O)n2)c(OC)cc1N1CCC(N2CCN(C(=O)[C@@H]3CCN(c4cc(F)c([C@H]5CCC(=O)NC5=O)c(F)c4)C3)CC2)CC1 [Example 511, (R)-3-(4-((R)-3-(4-(1-(4-((5-bromo-4-((5-(dimethylphosphoryl)-8-fluoro-2-methylquinolin-6-yl)amino)pyrimidin-2-yl)amino)-2-ethyl-5-methoxyphenyl)piperidin-4-yl)piperazine-1-carbonyl)pyrrolidin-1-yl)-2,6-difluorophenyl)piperidine-2,6-dione]
H1975 #23 DC Dmax (%) [1]: 67.01% | DC50 [1]: 3.3 nM | DC50 [2]: 10.6 nM | Dmax [2]: 92.5% | DC50 [3]: 1.04 nM | Dmax (%) H1975 # 28 DTC [3]: 65% | Dmax [4]: 88.9% | DC50 [4]: 9.67 nM

CCc1cc(Nc2ncc(Br)c(Nc3ccc4nc(C)ccc4c3P(C)(C)=O)n2)c(OC)cc1N1CCC(N2CCN(CCc3cccc4c3C(C)(C)C(=O)N4C3CCC(=O)NC3=O)CC2)CC1 (stereo not drawn) [Example 514, 3-(4-(2-(4-(1-(4-((5-bromo-4-((5-(dimethylphosphoryl)-2-methylquinolin-6-yl)amino)pyrimidin-2-yl)amino)-2-ethyl-5-methoxyphenyl)piperidin-4-yl)piperazin-1-yl)ethyl)-3,3-dimethyl-2-oxoindolin-1-yl)piperidine-2,6-dione]
H1975 #23 DC Dmax (%) [1]: 76.66% | DC50 [1]: 1.83 nM | DC50 [2]: 3.51 nM | Dmax [2]: 94.3% | DC50 [3]: 0.771 nM | Dmax (%) H1975 # 28 DTC [3]: 66.48% | Dmax [4]: 94% | DC50 [4]: 3.51 nM
